Experimental data published in patent publication US10710978B2, “STK4 inhibitors for treatment of hematologic malignancies” (Dana-Farber Cancer Institute, Inc., priority 2015, dated 2020).
Like-named read-outs stand apart in the source and are kept apart here.

Key:
Experiment in all cases: KiNativ assay
Format in all cases: binding
[1] = tested on: AurA, AurB, AurC; conditions: H929 live cell
Description: (§1) Biochemical IC50s of the compounds of the present disclosure against various kinases were measured in a KiNativ assay. Compounds were screened in duplicate at 10 μM in H929 live cell. IC50 was measured via Mass spectroscopy (MS).

[2] = target: BRAF (Homo sapiens (Human), UniProt P15056); conditions: H929 live cell
Description: as §1

[3] = target: CDK5 (Homo sapiens (Human), UniProt Q00535); conditions: H929 live cell
Description: as §1

[4] = target: CK1a (Homo sapiens (Human), UniProt P48729); conditions: H929 live cell
Description: as §1

[5] = target: CK1g2 (Homo sapiens (Human), UniProt P78368); conditions: H929 live cell
Description: as §1

[6] = target: DGKH (Homo sapiens (Human), UniProt Q86XP1); conditions: H929 live cell
Description: as §1

[7] = target: EphB2 (Homo sapiens (Human), UniProt P29323); conditions: H929 live cell
Description: as §1

[8] = target: FRAP (Homo sapiens (Human), UniProt P42345); conditions: H929 live cell
Description: as §1

[9] = target: HPK1 (Homo sapiens (Human), UniProt Q92918); conditions: H929 live cell
Description: as §1

[10] = target: IKKa (Homo sapiens (Human), UniProt O15111); conditions: H929 live cell
Description: as §1

[11] = target: MAP2K1 (Homo sapiens (Human), UniProt Q02750); conditions: H929 live cell
Description: as §1

[12] = target: MAP2K3 (Homo sapiens (Human), UniProt P46734); conditions: H929 live cell
Description: as §1

[13] = target: MAP2K5 (Homo sapiens (Human), UniProt Q13163); conditions: H929 live cell
Description: as §1

[14] = target: MAP2K7 (Homo sapiens (Human), UniProt O14733); conditions: H929 live cell
Description: as §1

[15] = tested on: MARK1, MARK2; conditions: H929 live cell
Description: as §1

[16] = target: MARK3 (Homo sapiens (Human), UniProt P27448); conditions: H929 live cell
Description: as §1

[17] = target: MPSK1 (Homo sapiens (Human), UniProt O75716); conditions: H929 live cell
Description: as §1

[18] = target: MST1 (Homo sapiens (Human), UniProt Q13043); conditions: H929 live cell
Description: as §1

[19] = tested on: MST4, YSK1; conditions: H929 live cell
Description: as §1

[20] = tested on: MST4; conditions: H929 live cell
Description: as §1

[21] = target: NEK9 (Homo sapiens (Human), UniProt Q8TD19); conditions: H929 live cell
Description: as §1

[22] = target: OSR1 (Homo sapiens (Human), UniProt O95747); conditions: H929 live cell
Description: as §1

[23] = target: PFTAIRE1 (Homo sapiens (Human), UniProt O94921); conditions: H929 live cell
Description: as §1

[24] = target: PHKg2 (Homo sapiens (Human), UniProt P15735); conditions: H929 live cell
Description: as §1

[25] = tested on: PI4KA, PI4KAP2; conditions: H929 live cell
Description: as §1

[26] = target: PKD2 (Homo sapiens (Human), UniProt Q9BZL6); conditions: H929 live cell
Description: as §1

[27] = target: PKN1 (Homo sapiens (Human), UniProt Q16512); conditions: H929 live cell, read-out: inhibition (10 μM)
Description: as §1

[28] = target: PLK1 (Homo sapiens (Human), UniProt P53350); conditions: H929 live cell
Description: as §1

[29] = target: RSK2 domain1 (Homo sapiens (Human), UniProt P51812); conditions: H929 live cell
Description: as §1

[30] = target: RSKL1 (Homo sapiens (Human), UniProt Q96S38); conditions: H929 live cell
Description: as §1

[31] = target: SMG1 (Homo sapiens (Human), UniProt Q96Q15); conditions: H929 live cell
Description: as §1

[32] = target: TBK1 (Homo sapiens (Human), UniProt Q9UHD2); conditions: H929 live cell
Description: as §1

[33] = target: TYK2 domain2 (Homo sapiens (Human), UniProt P29597); conditions: H929 live cell
Description: as §1

[34] = target: ULK1 (Homo sapiens (Human), UniProt O75385); conditions: H929 live cell
Description: as §1

[35] = range class, read-out: % inhibition

Chain of MST1 (Q13043 whole entry): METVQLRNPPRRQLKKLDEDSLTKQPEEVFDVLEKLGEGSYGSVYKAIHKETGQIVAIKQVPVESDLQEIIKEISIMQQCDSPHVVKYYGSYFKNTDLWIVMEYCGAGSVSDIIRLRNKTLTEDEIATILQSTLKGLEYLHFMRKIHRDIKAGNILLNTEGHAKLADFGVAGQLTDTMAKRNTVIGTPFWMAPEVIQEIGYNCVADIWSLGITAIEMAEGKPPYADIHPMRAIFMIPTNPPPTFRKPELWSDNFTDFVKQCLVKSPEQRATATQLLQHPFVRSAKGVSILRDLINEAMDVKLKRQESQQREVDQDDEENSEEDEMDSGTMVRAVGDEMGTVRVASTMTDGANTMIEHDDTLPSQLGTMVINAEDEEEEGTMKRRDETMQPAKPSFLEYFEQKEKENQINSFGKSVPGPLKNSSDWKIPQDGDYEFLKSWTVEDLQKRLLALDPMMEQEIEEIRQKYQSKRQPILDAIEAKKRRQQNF
Chain of MAP2K5 (Q13163 whole entry): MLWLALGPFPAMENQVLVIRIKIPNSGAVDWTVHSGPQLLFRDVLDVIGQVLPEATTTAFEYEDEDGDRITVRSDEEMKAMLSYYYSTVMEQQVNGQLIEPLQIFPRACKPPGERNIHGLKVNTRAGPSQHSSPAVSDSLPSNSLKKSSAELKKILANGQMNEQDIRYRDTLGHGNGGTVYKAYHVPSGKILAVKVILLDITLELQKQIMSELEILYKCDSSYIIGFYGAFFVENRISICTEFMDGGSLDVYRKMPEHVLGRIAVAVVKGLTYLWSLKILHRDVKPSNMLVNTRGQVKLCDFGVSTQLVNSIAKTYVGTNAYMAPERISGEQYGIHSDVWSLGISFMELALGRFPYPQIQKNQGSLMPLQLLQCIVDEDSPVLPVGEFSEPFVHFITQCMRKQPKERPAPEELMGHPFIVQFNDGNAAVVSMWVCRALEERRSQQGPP
Chain of CDK5 (Q00535 whole entry): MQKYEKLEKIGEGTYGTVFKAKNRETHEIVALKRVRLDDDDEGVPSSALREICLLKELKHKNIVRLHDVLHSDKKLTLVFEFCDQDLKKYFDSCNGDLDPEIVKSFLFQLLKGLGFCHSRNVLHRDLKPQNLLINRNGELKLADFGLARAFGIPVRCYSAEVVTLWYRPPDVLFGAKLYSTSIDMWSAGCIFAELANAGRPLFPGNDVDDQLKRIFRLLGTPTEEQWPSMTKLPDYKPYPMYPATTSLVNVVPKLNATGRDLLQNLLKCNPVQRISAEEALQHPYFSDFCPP
Chain of EphB2 (P29323 19-1055): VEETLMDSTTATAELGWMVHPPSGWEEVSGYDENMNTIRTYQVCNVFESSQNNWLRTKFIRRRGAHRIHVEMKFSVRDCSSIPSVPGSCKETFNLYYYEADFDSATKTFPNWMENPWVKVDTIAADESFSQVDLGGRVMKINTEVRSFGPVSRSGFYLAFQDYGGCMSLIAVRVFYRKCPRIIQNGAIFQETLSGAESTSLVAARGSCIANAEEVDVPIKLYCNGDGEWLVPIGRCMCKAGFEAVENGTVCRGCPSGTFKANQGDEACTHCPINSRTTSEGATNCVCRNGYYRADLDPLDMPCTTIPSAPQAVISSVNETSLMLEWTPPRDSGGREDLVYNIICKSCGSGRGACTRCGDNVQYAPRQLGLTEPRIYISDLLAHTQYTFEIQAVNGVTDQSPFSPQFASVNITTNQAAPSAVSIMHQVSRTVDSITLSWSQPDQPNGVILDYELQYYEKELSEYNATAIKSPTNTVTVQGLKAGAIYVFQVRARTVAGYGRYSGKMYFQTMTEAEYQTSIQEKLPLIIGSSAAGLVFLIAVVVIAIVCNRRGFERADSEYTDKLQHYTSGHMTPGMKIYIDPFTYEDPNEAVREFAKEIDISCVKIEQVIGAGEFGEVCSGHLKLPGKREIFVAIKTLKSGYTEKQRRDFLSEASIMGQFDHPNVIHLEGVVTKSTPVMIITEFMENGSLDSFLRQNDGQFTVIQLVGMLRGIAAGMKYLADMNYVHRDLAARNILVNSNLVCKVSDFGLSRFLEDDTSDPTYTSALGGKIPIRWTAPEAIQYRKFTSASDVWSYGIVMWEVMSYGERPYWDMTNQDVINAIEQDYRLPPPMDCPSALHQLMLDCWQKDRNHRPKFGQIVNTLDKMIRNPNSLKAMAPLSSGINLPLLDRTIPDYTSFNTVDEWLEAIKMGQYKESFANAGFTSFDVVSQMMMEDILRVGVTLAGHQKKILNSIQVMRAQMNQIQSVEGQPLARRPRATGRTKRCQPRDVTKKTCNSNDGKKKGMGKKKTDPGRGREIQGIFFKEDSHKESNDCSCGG
Chain of MAP2K3 (P46734 whole entry): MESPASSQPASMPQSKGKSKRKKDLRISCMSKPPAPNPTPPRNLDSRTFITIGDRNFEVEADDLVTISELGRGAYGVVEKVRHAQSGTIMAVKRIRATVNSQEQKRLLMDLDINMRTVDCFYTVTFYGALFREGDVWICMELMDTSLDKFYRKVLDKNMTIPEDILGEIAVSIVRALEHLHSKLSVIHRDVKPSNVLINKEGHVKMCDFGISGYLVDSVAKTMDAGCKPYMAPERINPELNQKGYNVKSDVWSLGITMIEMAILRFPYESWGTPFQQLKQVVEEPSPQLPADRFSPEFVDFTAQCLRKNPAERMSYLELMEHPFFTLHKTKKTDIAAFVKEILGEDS
Chain of CK1a (P48729 whole entry): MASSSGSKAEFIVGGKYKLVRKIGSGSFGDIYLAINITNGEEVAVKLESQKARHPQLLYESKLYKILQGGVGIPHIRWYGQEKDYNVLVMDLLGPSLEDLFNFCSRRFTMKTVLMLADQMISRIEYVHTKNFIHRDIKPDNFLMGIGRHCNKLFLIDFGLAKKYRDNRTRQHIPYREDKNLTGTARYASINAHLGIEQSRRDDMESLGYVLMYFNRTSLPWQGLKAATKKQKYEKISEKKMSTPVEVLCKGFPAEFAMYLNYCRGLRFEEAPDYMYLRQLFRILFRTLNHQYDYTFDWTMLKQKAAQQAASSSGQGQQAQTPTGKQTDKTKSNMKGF
Chain of OSR1 (O95747 whole entry): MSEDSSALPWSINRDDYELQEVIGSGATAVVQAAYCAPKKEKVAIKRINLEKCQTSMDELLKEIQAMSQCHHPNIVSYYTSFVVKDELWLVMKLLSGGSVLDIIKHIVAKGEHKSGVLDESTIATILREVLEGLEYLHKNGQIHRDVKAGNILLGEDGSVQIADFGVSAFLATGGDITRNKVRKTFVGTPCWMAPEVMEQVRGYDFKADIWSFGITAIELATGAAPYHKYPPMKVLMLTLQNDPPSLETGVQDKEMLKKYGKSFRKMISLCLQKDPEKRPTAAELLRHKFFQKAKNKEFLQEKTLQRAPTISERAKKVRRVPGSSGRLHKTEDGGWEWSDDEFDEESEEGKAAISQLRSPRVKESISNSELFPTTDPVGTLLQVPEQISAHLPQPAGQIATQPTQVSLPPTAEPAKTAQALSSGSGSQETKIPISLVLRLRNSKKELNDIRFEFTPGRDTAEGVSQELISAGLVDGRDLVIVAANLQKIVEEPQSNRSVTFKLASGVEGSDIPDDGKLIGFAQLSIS
Chain of MARK3 (P27448 whole entry): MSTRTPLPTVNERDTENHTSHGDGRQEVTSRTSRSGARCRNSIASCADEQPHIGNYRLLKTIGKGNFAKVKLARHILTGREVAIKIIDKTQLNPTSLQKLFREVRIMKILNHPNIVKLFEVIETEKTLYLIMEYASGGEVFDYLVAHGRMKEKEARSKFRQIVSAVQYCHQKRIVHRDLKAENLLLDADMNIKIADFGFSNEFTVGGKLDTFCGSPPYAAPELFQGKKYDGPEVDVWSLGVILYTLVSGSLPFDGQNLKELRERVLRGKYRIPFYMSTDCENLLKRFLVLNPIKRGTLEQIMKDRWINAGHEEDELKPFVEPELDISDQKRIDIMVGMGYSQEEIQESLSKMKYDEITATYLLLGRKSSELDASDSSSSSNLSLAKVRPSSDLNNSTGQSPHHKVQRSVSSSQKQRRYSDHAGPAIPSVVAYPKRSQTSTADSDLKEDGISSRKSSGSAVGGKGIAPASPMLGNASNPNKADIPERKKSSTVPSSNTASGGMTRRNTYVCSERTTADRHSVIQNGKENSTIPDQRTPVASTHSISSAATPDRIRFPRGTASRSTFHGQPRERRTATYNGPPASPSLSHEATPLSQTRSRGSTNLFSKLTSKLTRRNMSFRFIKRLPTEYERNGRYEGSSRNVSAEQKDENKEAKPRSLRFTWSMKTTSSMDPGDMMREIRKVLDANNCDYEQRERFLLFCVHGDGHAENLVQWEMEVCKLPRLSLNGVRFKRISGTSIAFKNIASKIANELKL
Chain of CK1g2 (P78368 whole entry): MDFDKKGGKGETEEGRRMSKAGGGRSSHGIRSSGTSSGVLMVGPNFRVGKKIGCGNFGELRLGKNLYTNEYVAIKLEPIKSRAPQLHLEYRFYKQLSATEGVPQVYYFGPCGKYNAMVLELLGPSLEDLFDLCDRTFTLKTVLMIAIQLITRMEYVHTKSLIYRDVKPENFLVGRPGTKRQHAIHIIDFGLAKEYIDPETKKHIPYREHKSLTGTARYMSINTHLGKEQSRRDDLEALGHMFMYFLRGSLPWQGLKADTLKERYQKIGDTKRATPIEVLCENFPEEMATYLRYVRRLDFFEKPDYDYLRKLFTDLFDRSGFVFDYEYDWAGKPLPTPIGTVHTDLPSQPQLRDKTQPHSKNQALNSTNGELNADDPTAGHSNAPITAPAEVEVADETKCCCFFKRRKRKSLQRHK
Chain of MPSK1 (O75716 whole entry): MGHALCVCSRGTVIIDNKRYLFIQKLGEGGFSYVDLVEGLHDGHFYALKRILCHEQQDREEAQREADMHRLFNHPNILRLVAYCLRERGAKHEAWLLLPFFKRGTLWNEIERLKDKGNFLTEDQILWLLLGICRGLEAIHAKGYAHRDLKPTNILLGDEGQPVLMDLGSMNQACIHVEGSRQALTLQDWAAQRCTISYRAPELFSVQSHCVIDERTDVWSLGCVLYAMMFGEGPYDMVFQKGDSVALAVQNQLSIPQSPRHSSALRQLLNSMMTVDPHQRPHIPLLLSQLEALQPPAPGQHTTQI

`Nc1ncc(-c2ccc(NS(=O)(=O)C3CC3)cc2OC2CCCCC2)cc1-c1ccc2c(c1)CCNC2=O` [Compound I-65, N-(4-(6-amino-5-(1-oxo-1,2,3,4-tetrahydroisoquinolin-6-yl)pyridin-3-yl)-3-(cyclohexyloxy)phenyl) cyclopropanesulfonamide] was tested, and the “% inhibition” value ([1]; 10 μM, range class) was 35-40%, the “inhibition (10 μM)” value [1] was 42.9% and the inhibition at 10 µM [2, 35] was 0%. For the same compound, the inhibition at 10 µM ([2]; read-out: inhibition (10 μM)) was -41.5%, the inhibition at 10 µM [3, 35] was 0% and the inhibition at 10 µM ([3]; read-out: inhibition (10 μM)) was 4.9%. The inhibition at 10 µM [4, 35] was 0%, the inhibition at 10 µM ([4]; read-out: inhibition (10 μM)) was -65.1% and the inhibition at 10 µM [5, 35] was 50 to 75%. For the same compound, the inhibition at 10 µM ([5]; read-out: inhibition (10 μM)) was 74.5%, the inhibition at 10 µM [6, 35] was 0% and the inhibition at 10 µM ([6]; read-out: inhibition (10 μM)) was 7.3%. For the same compound, the inhibition at 10 µM [7, 35] was 0%, the inhibition at 10 µM ([7]; read-out: inhibition (10 μM)) was 20.3% and the inhibition at 10 µM [8, 35] was 35 to 40%. For the same compound, the inhibition at 10 µM ([8]; read-out: inhibition (10 μM)) was 47.9%, the inhibition at 10 µM [9, 35] was greater than 90% and the inhibition at 10 µM ([9]; read-out: inhibition (10 μM)) was 95.5%. The inhibition at 10 µM [10, 35] was 0%, the inhibition at 10 µM ([10]; read-out: inhibition (10 μM)) was -34.3% and the inhibition at 10 µM [11, 35] was 0%. For the same compound, the inhibition at 10 µM ([11]; read-out: inhibition (10 μM)) was 21.2%, the inhibition at 10 µM [12, 35] was 0% and the inhibition at 10 µM ([12]; read-out: inhibition (10 μM)) was -6.1%. The inhibition at 10 µM [13, 35] was 0%, the inhibition at 10 µM ([13]; read-out: inhibition (10 μM)) was 15% and the inhibition at 10 µM [14, 35] was 0%. The inhibition at 10 µM ([14]; read-out: inhibition (10 μM)) was 3.3%, the “% inhibition” value ([15]; 10 μM, range class) was 0.0% and the “inhibition (10 μM)” value [15] was −29.4%. It also gave an inhibition at 10 µM [16, 35] of 0%, an inhibition at 10 µM ([16]; read-out: inhibition (10 μM)) of -22.7% and an inhibition at 10 µM [17, 35] of 50 to 75%. The inhibition at 10 µM ([17]; read-out: inhibition (10 μM)) was 72.8%, the inhibition at 10 µM [18, 35] was greater than 90% and the inhibition at 10 µM ([18]; read-out: inhibition (10 μM)) was 96.7%. For the same compound, the “% inhibition” value ([19]; 10 μM, range class) was 35-40%, the “inhibition (10 μM)” value [19] was 46.3% and the “% inhibition” value ([20]; 10 μM, range class) was 35-40%. For the same compound, the “inhibition (10 μM)” value [20] was 47.7%, the inhibition at 10 µM [21, 35] was 0% and the inhibition at 10 µM ([21]; read-out: inhibition (10 μM)) was -27.8%. For the same compound, the inhibition at 10 µM [22, 35] was 0%, the inhibition at 10 µM ([22]; read-out: inhibition (10 μM)) was 26.8% and the inhibition at 10 µM [23, 35] was 0%. It also gave an inhibition at 10 µM ([23]; read-out: inhibition (10 μM)) of -5.1%, an inhibition at 10 µM [24, 35] of 0% and an inhibition at 10 µM ([24]; read-out: inhibition (10 μM)) of -64%. The “% inhibition” value ([25]; 10 μM, range class) was 0.0%, the “inhibition (10 μM)” value [25] was −2.9% and the inhibition at 10 µM [26, 35] was 0%. For the same compound, the inhibition at 10 µM ([26]; read-out: inhibition (10 μM)) was -33.4%, the inhibition at 10 µM [27] was 35.9% and the inhibition at 10 µM [28, 35] was 0%. The inhibition at 10 µM ([28]; read-out: inhibition (10 μM)) was -10.1%, the inhibition at 10 µM [29, 35] was 75 to 90% and the inhibition at 10 µM ([29]; read-out: inhibition (10 μM)) was 79.4%. It also gave an inhibition at 10 µM [30, 35] of 0%, an inhibition at 10 µM ([30]; read-out: inhibition (10 μM)) of -10.6% and an inhibition at 10 µM [31, 35] of 50 to 75%. The inhibition at 10 µM ([31]; read-out: inhibition (10 μM)) was 68.8%, the inhibition at 10 µM [32, 35] was 50 to 75% and the inhibition at 10 µM ([32]; read-out: inhibition (10 μM)) was 74.6%. It also gave an inhibition at 10 µM [33, 35] of 0%, an inhibition at 10 µM ([33]; read-out: inhibition (10 μM)) of -8.4% and an inhibition at 10 µM [34, 35] of 0%. The inhibition at 10 µM ([34]; read-out: inhibition (10 μM)) was 22.2%.
